Experimental data as given in PMC11292009, “Mapping protein binding sites by photoreactive fragment pharmacophores” (Communications Chemistry, 2024).

Assays:
[1] = test system: carbonic anhydrase II (CA); assay: Intact protein MS photoaffinity labeling screen, carbonic anhydrase; type: binding; conditions: intact protein MS after 10 min irradiation
Method in brief: (§1)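 Read-out: intact protein MS taken straight from the plate, with successful labeling seen as added mass on the protein and expressed as labeling %. Beforehand, every fragment sat alone in a well with the protein for 15 min so non-covalent interactions could form.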

BRD4-BD1 = test system: T1, BRD4-BD1; assay: Intact MS photoaffinity labeling screen, BRD4-BD1 (302 nm, LCMS-TOF); type: binding; conditions: sheet PhP, experimental hit status flag given as 0 or 1
T1 construct: screened the PhP library against the first bromodomain of BRD4 (BRD4-BD1); purchased GSK/GenScript
Method in brief: (§2)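 Labeling detected as mass additions in deconvoluted intact-protein LCMS-TOF spectra. Protein at 1 μM in PBS was first mixed with one fragment per well on ice for 15 min, followed by 10 min UV exposure at 302 nm.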

KRas^G12D = test system: T2, KRas^G12D; assay: Intact MS photoaffinity labeling screen, KRas G12D (302 nm, LCMS-TOF); type: binding
T2 construct: purchased GSK/GenScript
Method in brief: as §2

lysozyme (Lyo) = assay: Intact protein MS photoaffinity labeling screen, lysozyme; type: binding; conditions: intact protein MS after 10 min irradiation
Method in brief: as §1

myoglobin (Myo) = assay: Intact protein MS photoaffinity labeling screen, myoglobin; type: binding; conditions: intact protein MS after 10 min irradiation
Method in brief: as §1

STAT5B-NTD [2] = test system: T3, STAT5B-NTD; assay: Intact MS photoaffinity labeling screen, STAT5B-NTD (365 nm, UHPLC-MS); type: binding;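 as to MS labeling percentage, STAT5B: 0.17 µL of 100 mM DMSO fragment stock added to the protein sample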
T3 construct: His-SUMO (N, cleaved yes); made in house; host or cells: E. coli BL21 RILP
Method in brief: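 UV irradiation at 365 nm for 10 min at 4 °C. Labeling read by intact-protein UHPLC-MS, positive ion mode, m/z 100–2000.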

STAT5B-NTD [3] = test system: T3, STAT5B-NTD; assay: Intact MS labeling screen, STAT5B-NTD conjugated with photocatalyst Ir-G2-PEG3-COOH (450 nm); type: binding; conditions: 450 nm 10 min;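 also: 0.14 µL of 100 mM DMSO fragment stock added to the conjugate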
Method in brief: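 Ir-G2-PEG3-COOH photocatalyst (10 eq) activated 30 min with EDC/NHS/BOP, then conjugated to STAT5B-NTD (7 µM) overnight at RT or 1 h at 37 °C in dark. PhP added, 1 h dark, then 450 nm irradiation 10 min at 4 °C; labeling read by intact LC-MS, positive ion mode, m/z 100–2000.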

[4] = test system: T4, Kras G12D protein / SOS1 exchange domain; assay: Kras-SOS exchange assay (MANT-GDP); type: biochemical
T4 construct: Cytoskeleton, Inc. (SOS1 exchange domain only) GE02
Protocol: MANT-GDP loading assay: Kras^G12D protein was first buffer exchanged into low magnesium buffer (20 mM HEPES-NaOH (pH 7.5), 50 mM NaCl, 0.5 mM MgCl2) using a NAP5 column (catalog no.: 17-0583-1, Cytiva). The proteins were then incubated with 20-fold molar excess of N-methylanthraniloyl (MANT)-GDP (catalog no.: 69244, Sigma-Aldrich) in loading buffer (50 mM NaCl, 20 mM HEPES-NaOH [pH 7.5], 0.5 mM MgCl2, 10 mM EDTA, and 1 mM Dithiothreitol (DTT)) in a total volume of 200 μL at 20 °C for 90 min. The reaction was stopped by adding MgCl2 to a final concentration of 10 mM, then incubated at 20 °C for 30 min. The unbound MANT-GDP was removed using the NAP-5 column equilibrated with nucleotide exchange buffer (40 mM HEPES-NaOH (pH 7.5), 50 mM NaCl, 10 mM MgCl2, 2 mM DTT).
MANT-GDP exchange assay: First the MANT-GDP bound Kras G12D protein (in a final 1 μM molar concentration) was preincubated with the inhibitor molecules for 60 min. After the preincubation the samples were exposed to UV light for 10 min with a wavelength of 366 nm. The UV-treated MANT-GDP Kras-inhibitor mix was loaded into a black 384 well microplate. The nucleotide exchange reaction was initiated by adding 100 fold molar excess of GppNHp (catalog no.: G0635, Sigma-Aldrich), a non-hydrolyzable GTP analog and the SOS1 exchange domain (catalog no.: GE02, Cytoskeleton, Inc.) protein in 0.5 μM final concentration. The change in fluorescence intensity was measured every 30 s in room temperature for 60 min on an EnSpire plate reader (PerkinElmer, Inc.). The measured fluorescence values were fitted to a single exponential function by using GraphPad Prism 8 software.

[5] = test system: CA, Lyo, Myo, BRD4-BD1, KRas G12D, STAT5B-NTD; assay: Intact MS labeling compared over all protein targets; type: binding; conditions: of the six protein targets
Protocol: Using a plate-based format with one fragment per well, each fragment was incubated with the target proteins for 15 min to allow for the formation of non-covalent interactions. The plate was then irradiated at 302 or 365 nm for 10 min to enable the bound fragments to crosslink to the protein[26]. Finally, the results were directly analyzed from the plate using intact protein mass spectrometry by observing the mass additions that correspond to successful labeling (Fig. 2c, for labeling % values see Supplementary data). The library was first characterized against three benchmark proteins like carbonic anhydrase (CA), lysozyme (Lyo), and myoglobin (Myo).
The PhP library was screened against BRD4-BD1 and KRas^G12D as follows. Using a Labcyte Echo® 555 Liquid Handler, 150 nL of fragment solution (20 mM) was transferred into a Greiner 384 low-volume plate (white) to prepare the probe plate. The probe plate was placed on ice. 15 μL of protein stock solution (1 μM BRD4-BD1 (GSK/GenScript) or KRas^G12D (GSK/GenScript) in PBS buffer) was dispensed into wells containing fragments. The plate was left on ice for 15 min for incubation, then irradiated at 302 nm for 10 min, and centrifuged (1000 rpm, 1 min) to remove any bubbles. The plate was then analyzed by LCMS-TOF mass spectrometry (Agilent 1200 series liquid chromatography with Agilent Bio-HPLC PLRP-S (1000 Å, 5 µm × 50 mm × 1.0 mm, PL1312-1502) reverse phase HPLC column at 70 °C equipped with an Agilent G6224 time-of-flight (ToF), see Supplementary Note 2 for the full protocols). The deconvoluted spectra were analyzed using R Studio software.
During the analysis, the column temperature was maintained at a constant 60 °C, and a sample volume of 3 µL was injected for each analysis. Data acquisition was conducted in positive ion mode within the m/z 100–2000 (mass-to-charge ratio) range. For the full protocol and spectra of the hits, see Supplementary Note 2.

[6] = sheet PhP, experimental hit status flag given as 0 or 1

## CC1(CCC(=O)Nc2ccc(-c3ncccc3O)cc2)N=N1 [PhP060, N1=NC1(C)CCC(=O)Nc2ccc(cc2)-c3ncccc3O]
[1]
  MS labeling percentage, CA: 17.3%
BRD4-BD1
  BRD4-BD1 (experimental hit status): 0
KRas^G12D; KRas G12D, 302 nm 10 min
  MS labeling percentage, KRas: 13.7%
KRas^G12D; [6]
  KRAS-G12D (experimental hit status): 1
Lysozyme (Lyo)
  MS labeling percentage, Lyo: 16.1%
Myoglobin (Myo)
  MS labeling percentage, Myo: 24.9%
STAT5B-NTD [2]; STAT5B-NTD, 365 nm 10 min, no photocatalyst
  MS labeling percentage, STAT5B: 0%
STAT5B-NTD [2]; [6]
  STAT5B-NTD (experimental hit status): 0
STAT5B-NTD [3]
  MS labeling percentage, STAT5B+photocat: 8.8%
[4]; prior to irradiation
  Effect on SOS1-mediated nucleotide exchange of KRas: no effect
[4]; upon irradiation (366 nm, 10 min)
  Effect on SOS1-mediated nucleotide exchange of KRas: no effect
[5]
  Number of proteins labeled: four
